{"source": "ChEMBL document CHEMBL6115034", "about": "“Pseudonatural Flavonols as Novel Copper Ionophores for NAFLD Intervention via Synergistic Copper Delivery and Flavonoid Activity” (J Med Chem, 2025)", "key": {"Mus musculus [1]": {"system": "Mus musculus", "assay": "Anti-NAFLD activity in high-fat diet-induced male C57BL/6J mouse model assessed as increase in copper level in liver at 125 mg/kg, po compound administrated as copper complex measured for 10 weeks by ICP-MS analysis", "type": "functional, organism-based"}, "Mus musculus [2]": {"system": "Mus musculus", "assay": "Anti-NAFLD activity in high-fat diet-induced male C57BL/6J mouse model assessed as increase in lactate level at 125 mg/kg, po compound administrated as copper complex measured for 10 weeks by LC-MS/MS analysis", "type": "functional, organism-based"}, "Mus musculus [3]": {"system": "Mus musculus", "assay": "Anti-NAFLD activity in high-fat diet-induced male C57BL/6J mouse model assessed as increase in S7P level in liver at 125 mg/kg, po compound administrated as copper complex measured for 10 weeks by LC-MS/MS analysis", "type": "functional, organism-based"}, "HepG2 [4]": {"system": "HepG2", "assay": "Anti-NAFLD activity in palmitic acid human HepG2 NAFLD cell model assessed as upregulation of CYP4F3 expression at 0.5 uM incubated for 24 hrs in presence of CuCl2 by mRNA sequencing analysis", "type": "functional, cell-based"}, "[5]": {"assay": "Photophysical property of the compound assessed as fluorescence quantum yield", "type": "physicochemical"}, "Mus musculus [6]": {"system": "Mus musculus", "assay": "Anti-NAFLD activity in high-fat diet-induced male C57BL/6J mouse model assessed as increase in lipid droplets accumulation in liver at 125 mg/kg, po compound administrated as copper complex measured for 10 weeks by oil red O staining based analysis", "type": "functional, organism-based"}, "HepG2 [7]": {"system": "HepG2", "assay": "Anti-NAFLD activity in palmitic acid human HepG2 NAFLD cell model assessed as cell viability at 0.1 to 0.5 uM compound administrated as copper complex measured at 24 hrs by MTT assay", "type": "functional, cell-based", "conditions": "dose 0.1-0.5 µM"}, "HepG2 [8]": {"system": "HepG2", "assay": "Anti-NAFLD activity in palmitic acid human HepG2 NAFLD cell model assessed as effect on HMOX1 expression at 0.5 uM incubated for 24 hrs in presence of CuCl2 by mRNA sequencing analysis", "type": "functional, cell-based"}, "HepG2 [9]": {"system": "HepG2", "assay": "Anti-NAFLD activity in palmitic acid human HepG2 NAFLD cell model assessed as upregulation of NQO1 expression at 0.5 uM incubated for 24 hrs in presence of CuCl2 by mRNA sequencing analysis", "type": "functional, cell-based"}, "HeLa [10]": {"system": "HeLa", "assay": "Induction of copper transporting activity in human HeLa cells assessed as increase in intracellular copper levels by measuring change in fluorescence intensity", "type": "functional, cell-based"}, "HepG2 [11]": {"system": "HepG2", "assay": "Anti-NAFLD activity in palmitic acid human HepG2 NAFLD cell model assessed as effect on IL6 expression at 0.5 uM incubated for 24 hrs in presence of CuCl2 by mRNA sequencing analysis", "type": "functional, cell-based"}, "HepG2 [12]": {"system": "HepG2", "assay": "Anti-NAFLD activity in palmitic acid human HepG2 NAFLD cell model assessed as downregulation of STAT3 expression at 0.5 uM incubated for 24 hrs in presence of CuCl2 by mRNA sequencing analysis", "type": "functional, cell-based"}, "HepG2 [13]": {"system": "HepG2", "assay": "Anti-NAFLD activity in palmitic acid human HepG2 NAFLD cell model assessed as upregulation of MT1E expression at 0.5 uM incubated for 24 hrs in presence of CuCl2 by mRNA sequencing analysis", "type": "functional, cell-based"}, "Mus musculus [14]": {"system": "Mus musculus", "assay": "Anti-NAFLD activity in high-fat diet-induced male C57BL/6J mouse model assessed as decrease in 3-phosphoglycerate at 125 mg/kg, po compound administrated as copper complex measured for 10 weeks by LC-MS/MS analysis", "type": "functional, organism-based"}, "Mus musculus [15]": {"system": "Mus musculus", "assay": "Anti-NAFLD activity in high-fat diet-induced male C57BL/6J mouse model assessed as increase in malic acid level at 125 mg/kg, po compound administrated as copper complex measured for 10 weeks by LC-MS/MS analysis", "type": "functional, organism-based"}, "HeLa [16]": {"system": "HeLa", "assay": "Induction of copper transporting activity in human HeLa cells assessed as increase in intracellular copper levels at 0.02 to 20 uM by ICP-MS analysis", "type": "functional, cell-based", "conditions": "dose 0.02-20 µM, time <= 24.0 hrs"}, "HepG2 [17]": {"system": "HepG2", "assay": "Cytotoxicity against human HepG2 cells assessed as cell viability at 0.1 to 5 uM measured at 24 hrs by MTT assay", "type": "functional, cell-based", "conditions": "dose 0.1-5 µM"}, "[18]": {"assay": "Stability of compound in PBS buffer in presence of histidine by UV-Vis spectrophotometer analysis", "type": "physicochemical"}, "[19]": {"assay": "Stability of compound in PBS buffer in presence of EDTA by UV-Vis spectrophotometer analysis", "type": "physicochemical"}, "HepG2 [20]": {"system": "HepG2", "assay": "Anti-NAFLD activity in palmitic acid human HepG2 NAFLD cell model assessed as upregulation of TXN expression at 0.5 uM incubated for 24 hrs in presence of CuCl2 by mRNA sequencing analysis", "type": "functional, cell-based"}, "Mus musculus [21]": {"system": "Mus musculus", "assay": "Anti-NAFLD activity in high-fat diet-induced male C57BL/6J mouse model assessed as reduction in serum NEFA level at 125 mg/kg, po compound administrated as copper complex measured for 10 weeks", "type": "functional", "set-up": "scale not given: the % may be the effect or the level left"}, "HepG2 [22]": {"system": "HepG2", "assay": "Anti-NAFLD activity in palmitic acid human HepG2 NAFLD cell model assessed as downregulation of STAT1 expression at 0.5 uM incubated for 24 hrs in presence of CuCl2 by mRNA sequencing analysis", "type": "functional, cell-based"}, "HepG2 [23]": {"system": "HepG2", "assay": "Anti-NAFLD activity in palmitic acid human HepG2 NAFLD cell model assessed as effect on CYP4F11 expression at 0.5 uM incubated for 24 hrs in presence of CuCl2 by mRNA sequencing analysis", "type": "functional, cell-based"}, "HepG2 [24]": {"system": "HepG2", "assay": "Anti-NAFLD activity in palmitic acid human HepG2 NAFLD cell model assessed as effect on SLC48A1 expression at 0.5 uM incubated for 24 hrs in presence of CuCl2 by mRNA sequencing analysis", "type": "functional, cell-based"}, "[25]": {"assay": "Toxicity in male C57BL/6 mouse assessed as kidney lesion at 125 mg/kg, po compound administrated as copper complex measured for 10 weeks", "type": "organism-based", "conditions": "in vivo, 1680 h"}, "[26]": {"assay": "Stability of the compound in cell culture medium containing 10% fetal bovine serum in presence of EDTA by UV-Vis spectrophotometer analysis", "type": "physicochemical, cell-free", "conditions": "cattle"}, "HepG2 [27]": {"system": "HepG2", "assay": "Anti-NAFLD activity in palmitic acid human HepG2 NAFLD cell model assessed as downregulation of STEAP4 expression at 0.5 uM incubated for 24 hrs in presence of CuCl2 by mRNA sequencing analysis", "type": "functional, cell-based"}, "HepG2 [28]": {"system": "HepG2", "assay": "Cytotoxicity against human HepG2 cells assessed as cell viability at 0.1 to 5 uM compound administrated as copper complex measured at 24 hrs by MTT assay", "type": "functional, cell-based", "conditions": "dose 0.1-5 µM"}, "HepG2 [29]": {"system": "HepG2", "assay": "Anti-NAFLD activity in palmitic acid human HepG2 NAFLD cell model assessed as upregulation of SOD1 expression at 0.5 uM incubated for 24 hrs in presence of CuCl2 by mRNA sequencing analysis", "type": "functional, cell-based"}, "HepG2 [30]": {"system": "HepG2", "assay": "Anti-NAFLD activity in palmitic acid human HepG2 NAFLD cell model assessed as decrease in lipid droplet level at 5 uM measured at 24 hrs by Oil Red O staining based assay relative to control", "type": "functional", "set-up": "scale not given: the % may be the effect or the level left"}, "HeLa [31]": {"system": "HeLa", "assay": "Induction of copper transporting activity in human HeLa cells assessed as increase in intracellular copper levels incubated upto 24 hrs by ICP-MS analysis", "type": "functional, cell-based", "conditions": "dose 0.02-20 µM"}, "Mus musculus [32]": {"system": "Mus musculus", "assay": "Anti-NAFLD activity in high-fat diet-induced male C57BL/6J mouse model assessed as increase in glucose level serum at 125 mg/kg, po compound administrated as copper complex measured for 10 weeks", "type": "functional, organism-based"}}, "note": "Active and inactive are the calls of the source. No cut-off for these calls is given here."}
{"smiles": "O=c1c(O)c(-c2ccc3cccc(O)c3n2)oc2ccccc12", "values": [{"measurement": "Activity", "setting": "Mus musculus [1]", "result": "Active"}, {"measurement": "Activity", "setting": "Mus musculus [2]", "result": "Active"}, {"measurement": "Activity", "setting": "Mus musculus [3]", "result": "Active"}, {"measurement": "Activity", "setting": "HepG2 [4]", "result": "Active"}, {"measurement": "Activity", "setting": "[5]", "result": 0.199}, {"measurement": "Activity", "setting": "Mus musculus [6]", "result": "Active"}, {"measurement": "Activity", "setting": "HepG2 [7]", "result": "Active"}, {"measurement": "Activity", "setting": "HepG2 [8]", "result": "Active"}, {"measurement": "Activity", "setting": "HepG2 [9]", "result": "Active"}, {"measurement": "Activity", "setting": "HeLa [10]", "result": "Active"}, {"measurement": "Activity", "setting": "HepG2 [11]", "result": "Active"}, {"measurement": "Activity", "setting": "HepG2 [12]", "result": "Active"}, {"measurement": "Activity", "setting": "HepG2 [13]", "result": "Active"}, {"measurement": "Activity", "setting": "Mus musculus [14]", "result": "Active"}, {"measurement": "Activity", "setting": "Mus musculus [15]", "result": "Active"}, {"measurement": "Activity", "setting": "HeLa [16]", "result": "Time-dependent-effect"}, {"measurement": "Activity", "setting": "HepG2 [17]", "result": "Active"}, {"measurement": "Stability", "setting": "[18]", "result": "Stable"}, {"measurement": "Stability", "setting": "[19]", "result": "Stable"}, {"measurement": "Activity", "setting": "HepG2 [20]", "result": "Active"}, {"measurement": "Activity", "setting": "Mus musculus [21]", "result": 52, "unit": "%"}, {"measurement": "Activity", "setting": "HepG2 [22]", "result": "Active"}, {"measurement": "Activity", "setting": "HepG2 [23]", "result": "Active"}, {"measurement": "Activity", "setting": "HepG2 [24]", "result": "Active"}, {"measurement": "Activity", "setting": "[25]", "result": "Non-toxic"}, {"measurement": "Stability", "setting": "[26]", "result": "Stable"}, {"measurement": "Activity", "setting": "HepG2 [27]", "result": "Active"}, {"measurement": "Activity", "setting": "HepG2 [28]", "result": "Active"}, {"measurement": "Activity", "setting": "HepG2 [29]", "result": "Active"}, {"measurement": "Activity", "setting": "HepG2 [30]", "result": 61, "unit": "%"}, {"measurement": "Activity", "setting": "HeLa [31]", "result": "Dose-dependent-effect"}, {"measurement": "Activity", "setting": "Mus musculus [32]", "result": "Active"}]}
